The record followed here is ChEMBL document CHEMBL1629524, “2-Azetidinone--a new profile of various pharmacological activities” (Eur J Med Chem, 2010).

One data set relates to Pseudomonas aeruginosa. In words: Antimicrobial activity against Pseudomonas aeruginosa ATCC 10145. In kind it is functional.
The target of a further data set is T1, Chymase (Homo sapiens, UniProt P23946).
T1 sequence (P23946 whole entry): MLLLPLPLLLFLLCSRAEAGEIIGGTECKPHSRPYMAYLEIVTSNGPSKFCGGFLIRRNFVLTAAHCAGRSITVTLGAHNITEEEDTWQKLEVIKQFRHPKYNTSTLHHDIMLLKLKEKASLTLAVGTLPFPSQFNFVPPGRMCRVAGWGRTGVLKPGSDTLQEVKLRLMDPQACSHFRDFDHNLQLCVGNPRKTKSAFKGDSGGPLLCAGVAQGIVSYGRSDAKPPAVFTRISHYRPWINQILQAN
In words: Inhibition of human Chymase.

Data set [1] is described as follows: Inhibition of bovine brain tubulin polymerization. Set-up: species or system Bos taurus.
A further data set has as its target T2, Neutrophil elastase (Homo sapiens, UniProt P08246).
T2 sequence (P08246 whole entry): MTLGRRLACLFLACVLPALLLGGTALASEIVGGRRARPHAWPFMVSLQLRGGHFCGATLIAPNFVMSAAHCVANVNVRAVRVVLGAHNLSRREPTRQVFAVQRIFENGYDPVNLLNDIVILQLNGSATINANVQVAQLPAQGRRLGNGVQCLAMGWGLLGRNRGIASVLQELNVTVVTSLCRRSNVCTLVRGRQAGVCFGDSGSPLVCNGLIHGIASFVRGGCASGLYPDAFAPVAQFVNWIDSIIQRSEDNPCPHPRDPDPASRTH
In words: Inhibition of human leukocyte elastase.

Data set [2] can be described thus: Inhibition of human cytomegalovirus protease. Also noted: species or system Human betaherpesvirus 5.
Data set [3] can be described thus: Chemical stability of the compound in human plasma assessed as half life. Format: ADME, cell-free.
Data set [4] concerns the target 72 kDa type IV collagenase (Homo sapiens, UniProt P08253). In words: Inhibition of MMP2.
A short description of data set [5]: Inhibition of human Tryptase.
For another data set, the species on record is Canis familiaris. Put plainly: Antidyslipidemic activity in cholesterol-fed Dog assessed as reduction in plasma cholesterol level. In kind it is functional. The settings on record: Canis lupus familiaris.
The test system of another data set is Rhesus monkey. Put plainly: Antidyslipidemic activity in cholesterol-fed rhesus monkey assessed as reduction in plasma cholesterol. The settings on record: Macaca mulatta. Format: functional.
Data set [6] concerns Hamster. Put plainly: Antidyslipidemic activity in cholesterol-fed hamster model assessed as reduction in liver cholesteryl esters. Format: functional. The conditions noted are these: Cricetinae.
The test system of the next data set is Caco-2. In words: Antidyslipidemic activity in human Caco2 cells assessed as inhibition of cholesterol esterification. In kind it is functional, cell-based.
Data set [7] is described as follows: Antidyslipidemic activity in rat hepatic microsomes assessed as inhibition of […]. Format: functional, Liver.
The subject of a further data set is HepG2. Put plainly: Antidyslipidemic activity in human HepG2 cells assessed as inhibition of cholesterol esterification. In kind it is functional, cell-based.
Data set [8] concerns Hamster. Put plainly: Antidyslipidemic activity in hamster assessed as reduction in hepatic cholesteryl esters. In kind it is functional. The settings on record: Cricetinae.
Data set [9] concerns Hamster. Put plainly: Antidyslipidemic activity in cholesterol-fed hamster assessed as reduction in plasma cholesterol. In kind it is functional. The settings on record: Cricetinae.
The species named for the next data set is Rattus norvegicus. In words: Antidyslipidemic activity in cholesterol-fed rat assessed as reduction in plasma cholesterol. Format: functional.

≈ marks a conversion by molar mass, not a printed value. Where only a bound is given, the exact number is not on record here.

Chain of 72 kDa type IV collagenase (P08253 whole entry): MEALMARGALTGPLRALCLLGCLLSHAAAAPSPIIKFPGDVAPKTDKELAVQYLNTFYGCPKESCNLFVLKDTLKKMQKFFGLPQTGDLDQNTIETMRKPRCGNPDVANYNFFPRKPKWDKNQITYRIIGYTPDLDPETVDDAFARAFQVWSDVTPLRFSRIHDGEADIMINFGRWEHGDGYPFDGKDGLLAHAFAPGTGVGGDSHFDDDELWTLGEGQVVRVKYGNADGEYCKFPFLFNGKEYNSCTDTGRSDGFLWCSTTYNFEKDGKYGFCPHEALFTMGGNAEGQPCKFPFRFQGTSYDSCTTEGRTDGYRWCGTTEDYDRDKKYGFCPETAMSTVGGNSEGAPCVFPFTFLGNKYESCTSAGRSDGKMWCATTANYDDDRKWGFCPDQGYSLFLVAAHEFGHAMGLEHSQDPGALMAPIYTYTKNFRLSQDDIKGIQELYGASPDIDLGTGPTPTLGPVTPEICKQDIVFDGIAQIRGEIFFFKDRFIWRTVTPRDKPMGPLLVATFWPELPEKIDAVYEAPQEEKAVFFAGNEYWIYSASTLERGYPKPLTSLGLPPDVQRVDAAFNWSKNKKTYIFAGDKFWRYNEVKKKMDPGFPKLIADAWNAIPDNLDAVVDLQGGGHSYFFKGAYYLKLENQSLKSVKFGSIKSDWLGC

In general, MIC refers to the lowest concentration that inhibits growth of the organism. As to `O=C1N(c2ccccc2)C(c2ccccc2)C1(Cl)Cl` (stereo unspecified), the MIC against Pseudomonas aeruginosa worked out at 125 µg/mL (≈ 428 µM).

With `COc1ccc(C2N(c3ccc(OC)cc3)C(=O)C2(Cl)Cl)cc1` (stereo unspecified), in the data set on Pseudomonas aeruginosa, the lowest concentration to inhibit growth (MIC) was 125 µg/mL (≈ 355 µM).

Regarding `Cc1ccc(C2N(c3ccc(C)cc3)C(=O)C2(Cl)Cl)cc1` (stereo unspecified), the lowest concentration to inhibit growth against Pseudomonas aeruginosa (MIC) was 125 µg/mL (≈ 390 µM).

`O=C1N(c2ccc(Cl)cc2)C(c2ccc(Cl)cc2)C1(Cl)Cl` (stereo unspecified) registered an MIC in the data set on Pseudomonas aeruginosa of 125 µg/mL (≈ 346 µM).

For `O=C1N(c2ccccc2)C(c2ccc([N+](=O)[O-])cc2)C1(Cl)Cl` (stereo unspecified), in the data set with Pseudomonas aeruginosa, inhibition of growth (MIC) required 125 µg/mL (≈ 371 µM).

What is called IC50 is the concentration needed to halve the response being measured. On to `C[C@@H](NC(=O)N1C(=O)[C@@H](Cc2ccccc2)[C@H]1Oc1ccc(N2CCN(C)CC2)cc1)c1ccccc1`, for which, at Chymase, half-maximal inhibition (IC50) required 0.46 nM.

With `COc1ccc(C2C(O)C(=O)N2c2ccccc2)cc1N` (stereo unspecified), the midpoint of inhibition in [1], the IC50, lay at 5000 nM.

`CCOC(=O)/C=C1\[C@@H](C(C)O[Si](C)(C)C(C)(C)C)C(=O)N1C(=O)c1cc(OCc2ccccc2)c(OCc2ccccc2)c(OCc2ccccc2)c1` (stereo partly specified) had an IC50 against Neutrophil elastase of 500 nM.

In data set [2], `CC[C@@H](NC(=O)N1C(=O)CC1SC[C@H](CC(C)C)NC(=O)[C@@H](NC(=O)CC(C)(C)C)C(C)(C)C)c1ccccc1` (stereo partly specified) had an IC50 of 70 nM.

A word on the half-life: it is the time in which the quantity being followed falls by half. Turning to `CCOc1ccccc1C[C@@H]1C(=O)N(C(=O)NC(c2ccccc2)c2ccccc2)[C@@H]1Oc1ccc(C(=O)O)cc1`, the half-life in data set [3] was 6 h. The compound also came in with an IC50 at Chymase of 3.1 nM.

Regarding `CCOC(=O)/C=C1\NC(=O)[C@@H]1[C@@H](C)OC(=O)c1cc(OCc2ccccc2)c(O)c(OCc2ccccc2)c1`, half-maximal inhibition in [4] (IC50) required 4000 nM.

Compound `N=C(N)N1CCC[C@H](C[C@H]2C(=O)N(C(=O)N3CCN(C(=O)CCCCCc4ccccc4)CC3)[C@@H]2C(=O)O)C1` yielded an IC50 in data set [5] of less than 1.7 nM.

Regarding `O=C(O)[C@@H]1[C@@H](CCC2CCCNC2)C(=O)N1C(=O)N1CCN(C(=O)CCCCCc2ccccc2)CC1` (stereo partly specified), it took 1.8 nM to reach half-maximal inhibition in [5] (IC50).

Take `N=C(N)N1CCC[C@@H](C[C@H]2C(=O)N(C(=O)N3CCN(C(=O)CCCCCc4ccccc4)CC3)[C@@H]2C(=O)O)C1`: in data set [5], the IC50 is less than 1.7 nM.

For `CC(C)(C)NC(=O)N1CCN(C(=O)N2C(=O)[C@H](CCCN=C(N)N)[C@H]2C(=O)O)CC1`, the IC50 in [5] is 4 nM.

The term ED50 denotes the midpoint of the dose-response relation. `O=C1[C@H](CC[C@H](O)c2ccc(F)cc2)[C@@H](c2ccc(O)cc2)N1c1ccc(F)cc1` [EZETIMIBE]: the ED50 in the data set filed under Canis familiaris was 0.007 mg/kg/day; in the data set on Rhesus monkey, 0.5 µg/kg; in the data set on Hamster [6], 0.04 mg/kg/day.

For `COc1ccc([C@@H]2[C@@H](CCCc3ccccc3)C(=O)N2c2ccc(OC)cc2)cc1` [SCH-48461], the IC50 came out at 32000 nM in the data set on Caco-2, 26000 nM in data set [7] and 22000 nM in the data set on HepG2. Besides, the 50% effective dose (ED50) in the data set on Rhesus monkey came out at 0.2 mg/kg/day; in the data set with Hamster [8], 2 mg/kg/day; with Hamster [9], 1 mg/kg/day; in the data set filed under Rattus norvegicus it was 2 mg/kg/day.
